Assay results reported in patent US20160320368A1, “METHOD AND APPARATUS FOR PREDICTING EFFECTIVE DOSE OR SENSITIVITY OF 5-HYDROXY-1H-IMIDAZOLE-4-CARBOXAMIDE, METHOD FOR DETERMINING AMOUNT OF XANTHOSINE MONOPHOSPHATE, AND TREATMENT AGENT AND METHOD FOR TREATING MYELODYSPLASTIC SYNDROME” (FUJIFILM Corporation, priority 2014, published 2016).

Columns and labels:
XMP in blood cells = XMP in blood cells of mice after oral administration; type: in vivo, female mice (BALB/cAJcl); conditions: 100 mg/kg oral, non-treated = 100%
Procedure: (§1) A ¾ hydrate of Compound A was used as a test compound.
(§2) 0.5% MC or 0.5% MC of the test compound (100 mg/kg in terms of Compound A) was orally administered to female mice (BALB/cAJcl).
Whole blood was collected from the postcava of animals under anesthesia by isoflurane inhalation at 1, 4, 8 or 24 hours post-dose, using a polypropylene syringe treated with an ethylenediaminetetraacetic acid disodium salt and a 25 gauge injection needle. BD Pharm Lyse (555899, manufactured by Becton, Dickinson and Company, Inc.) was added to the blood (2 mL of BD Pharm Lyse was added relative to 0.2 mL of blood). After stirring with a vortex mixer, the reaction solution was protected from light and allowed to stand at room temperature for 15 min. After centrifugation at 20° C. and 1000×g for 5 min, the supernatant was removed and suspended in 10 mL of a PBS solution. After centrifugation at 4° C. and 1000×g for 5 min, the supernatant was removed, and 1000 μL of methanol was added to each tube, followed by stirring. Thereafter, 500 μL of ultrapure water was added thereto, followed by further stirring. 600 μL of the reaction solution was divided into each of two tubes, and 400 μL of chloroform was added to each tube. The reaction solution was stirred and then centrifuged at 4° C. and 10000×g for 15 min. 400 μL of the aqueous phase was recovered and added to an ultrafiltration tube, followed by centrifugation at 12° C. and 9200×g for 2 hours. The filtrates were combined and then dried under reduced pressure at 40° C. for 2 hours by using a centrifugal evaporator. After drying, the resulting product was stored in a freezer at −80° C.
(§3) The samples obtained in (2-1) and (2-2) were returned to room temperature, and 40 μL of ultrapure water was added to the hemolysis sample and 150 μL of ultrapure water was added to the bone marrow sample. The mixture was stirred and then centrifuged at 4° C. and 21500×g for 5 min. For the hemolysis sample, 35 μL of the supernatant was transferred to a vial. For the bone marrow sample, 140 μL of the supernatant was transferred to a vial. After storage at 4° C., XMP in samples was determined in the LC-MS/MS determination instrument, LC conditions and MS/MS conditions described in Example 3 (3).
(§4) Amounts of XMP (%) were calculated assuming that amounts of XMP in a non-Compound A treated group are defined as 100%.

XMP in bone marrow cells = XMP in bone marrow cells of mice after oral administration; type: in vivo, female mice (BALB/cAJcl); conditions: 100 mg/kg oral, non-treated = 100%
Procedure: as §1, §2
Right and left femurs of animals were collected under anesthesia by isoflurane inhalation at 1, 4, 8 or 24 hours post-dose, followed by cutting bone ends and centrifuging at 4° C. and 3000 rpm for 1 min to recover bone marrow cells. The recovered bone marrow cells were suspended in 1 mL of PBS, and the number of cells was counted. After centrifugation at 4° C. and 1000×g for 5 min, the supernatant was removed, and 1000 μL of methanol was added to each tube, followed by stirring. Thereafter, 500 μL of ultrapure water was added thereto, followed by further stirring. 600 μL of the reaction solution was divided into each of two tubes, and 400 μL of chloroform was added to each tube. The reaction solution was stirred and then centrifuged at 4° C. and 10000×g for 15 min. 400 μL of the aqueous phase was recovered and added to an ultrafiltration tube, followed by centrifugation at 12° C. and 9200×g for 2 hours. The filtrates were combined and then dried under reduced pressure at 40° C. for 2 hours by using a centrifugal evaporator. After drying, the resulting product was stored in a freezer at −80° C.
as §3, §4

XMP in whole blood = XMP in whole blood (Example 8); type: cell-based, human; conditions: 37° C., 8 hours, non-treated = 100%
Procedure: as §1
450 μL of the blood collected from healthy individuals by heparinized blood collection was added to each tube, and 50 μL of a PBS solution of the test compound (0 μg/mL, 1 μg/mL, 10 μg/mL, or 100 μg/mL in terms of Compound A) for each concentration was added to each tube. The reaction mixture was stirred in an incubator at 37° C. for 8 hours.
400 μL of methanol was added to 100 μL of the blood sample obtained in (1). After stirring, 400 μL of chloroform was added, followed by further stirring. 120 μL of ultrapure water was added thereto, followed by stirring and then centrifugation at 4° C. and 10000×g for 15 min. 400 μL of the aqueous phase was recovered and added to an ultrafiltration tube, followed by centrifugation at 12° C. and 9200×g for 2 hours. The filtrate was dried under reduced pressure at 40° C. for 2 hours by using a centrifugal evaporator. After drying, the resulting product was stored in a freezer at −80° C.
The samples obtained in (2) were returned to room temperature and 40 μL of ultrapure water was added to each sample. The mixture was stirred and centrifuged at 4° C. and 21500×g for 5 min. 35 μL of the supernatant was transferred to a vial. After storage at 4° C., XMP, GMP and GTP in the samples were determined in the LC-MS/MS determination instrument and LC conditions described in Example 3 (3), and MS/MS conditions shown in Table 15.
Amounts of XMP, GMP and GTP (%) were calculated assuming that the XMP, GMP and GTP values of a non-Compound A treated group (peak area value) are defined as 100%.

NC(=O)c1nc[nH]c1O [Compound A, 5-Hydroxy-1H-imidazole-4-carboxamide]
Amount of XMP (%) Blood cell (XMP in blood cells; 1 hr post-dose): 3.4%
Amount of XMP (%) Blood cell (XMP in blood cells; 4 hr post-dose): 7.2%
Amount of XMP (%) Blood cell (XMP in blood cells; 8 hr post-dose): 26.4%
Amount of XMP (%) Blood cell (XMP in blood cells; 24 hr post-dose): 70.7%
Amount of XMP (%) Bone marrow cell (XMP in bone marrow cells; 1 hr post-dose): 8.7%
Amount of XMP (%) Bone marrow cell (XMP in bone marrow cells; 4 hr post-dose): 16.5%
Amount of XMP (%) Bone marrow cell (XMP in bone marrow cells; 8 hr post-dose): 25.9%
Amount of XMP (%) Bone marrow cell (XMP in bone marrow cells; 24 hr post-dose): 82.7%
Amount of each compound in whole blood (%) XMP (XMP in whole blood; Compound A 1 μg/mL): 55%
Amount of each compound in whole blood (%) XMP (XMP in whole blood; Compound A 10 μg/mL): 30%
Amount of each compound in whole blood (%) XMP (XMP in whole blood; Compound A 100 μg/mL): 13%
